Measurements taken from ChEMBL document CHEMBL1828594, “Synthesis, stereochemistry and SAR of a series of minodronate analogues as RGGT inhibitors” (Eur J Med Chem, 2011).

Columns and labels:
[1] = Inhibition of RGGT in cell-based assay assessed as inhibition of Rab11 prenylation after 24 hrs by Western blot analysis
[2] = tested on: J774; experiment: Cytotoxicity against mouse J774 cells assessed as reduction in cell viability after 48 hrs; format: functional, cell-based; conditions: J774, 48 h
[3] = Inhibition of RGGT assessed as [3H]GGPP incorporation into Rab1a protein after 30 mins

SMILES: O=C(O)C(O)(Cc1cnc2ccccn12)P(=O)(O)O (racemic) [(2-HYDROXY-3-IMIDAZO[1,2-A]PYRIDIN-3-YL-2-PHOSPHONOPROPIONIC ACID (ENANTIONMERS)]
- LED [1]: 3 µM
- IC50 [2]: 50 µM
- IC50 [3]: 1.24 µM

SMILES: O=C(O)C(Cc1cnc2ccccn12)P(=O)(O)O (racemic)
- LED [1]: 12 µM
- IC50 [2]: > 600 µM
- IC50 [3]: 13.4 µM

SMILES: O=C(O)C(Cl)(Cc1cnc2ccccn12)P(=O)(O)O (racemic)
- LED [1]: 12 µM
- IC50 [2]: > 400 µM
- IC50 [3]: 7.5 µM

SMILES: O=C(O)C(F)(Cc1cnc2ccccn12)P(=O)(O)O (stereo not given)
- LED [1]: 6 µM
- IC50 [2]: 60 µM
- IC50 [3]: 6.11 µM

SMILES: O=C(O)C(Br)(Cc1cnc2ccccn12)P(=O)(O)O (racemic)
- LED [1]: 25 µM
- IC50 [2]: > 600 µM
- IC50 [3]: 5.56 µM
